Where “and” joins values, the source holds several entries; their conditions need not be identical. Equal entries are not always repeated. Where two headings read alike, the source gives them in different places.
Tests used:
SFRP-1 [1] = target: T1, SFRP-1 (Homo sapiens, UniProt Q8N474); test: Fluorescence polarization binding assay (competitive displacement of a probe compound from SFRP-1); conditions: fluorescence anisotropy, 45 nM SFRP-1, 20 nM probe;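 further: test compound competes with a fluorescent probe held by SFRP-1, seen as a drop in probe anisotropy after incubation in darkness, with anisotropy as function of rising compound dose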
T1 sequence (Q8N474 32-314): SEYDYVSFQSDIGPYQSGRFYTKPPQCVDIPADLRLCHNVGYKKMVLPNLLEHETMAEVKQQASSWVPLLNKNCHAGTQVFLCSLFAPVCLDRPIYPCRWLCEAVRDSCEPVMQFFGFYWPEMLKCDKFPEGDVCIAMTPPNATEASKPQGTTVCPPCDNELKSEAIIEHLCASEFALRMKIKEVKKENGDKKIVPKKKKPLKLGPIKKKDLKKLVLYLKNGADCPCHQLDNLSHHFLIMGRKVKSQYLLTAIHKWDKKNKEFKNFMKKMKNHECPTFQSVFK

SFRP-1 [2] = target: T1, SFRP-1; test: Cell-based assay for in vitro measurement of SFRP-1/SARP2 antagonist activity (U2OS cells co-transfected with 16x TCF-tk-Luciferase reporter, Wnt and hSFRP-1); conditions: for fold induction at 15 µM / fold induction at 10 µM: U2OS; for fold induction at 10 µM: read-out: Fold Induction with SFRP-1, U2OS cells, single dose 10 μM, luciferase reporter, fold induction over SFRP-1 control;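 on all read-outs here: U2OS cells co-transfected with a TCF-tk luciferase reporter, a Wnt vector, hSFRP-1 or empty vector and CMV-βgal, luciferase luminescence read in cell lysates alongside βgal activity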
[3] = read-out: Fold Induction with SFRP-1, Conc 15 μM, single dose, luciferase reporter, fold induction over SFRP-1 control, cells with SFRP-1
[4] = read-out: Fold Induction without SFRP-1, Conc 15 μM, single dose, luciferase reporter, cells without SFRP-1 (specificity control)
[5] = read-out: Fold Induction with SFRP-1, Conc 15 μM, with SFRP-1, fold induction over SFRP-1 control, single dose
[6] = read-out: Fold Induction without SFRP-1, Conc 15 μM, without SFRP-1, single dose

| Structure (SMILES) | IC50 (SFRP-1 [1]) | fold induction at 15 µM (SFRP-1 [2]; [5]) | fold induction at 15 µM (SFRP-1 [2]; [6]) | fold induction at 10 µM (SFRP-1 [2]) | EC50 (SFRP-1 [2]) [nM] | other results |
| --- | --- | --- | --- | --- | --- | --- |
| CC(C)c1ccc(S(=O)(=O)c2cc(Cl)cc(Cl)c2)cc1S(=O)(=O)NCCc1ccccn1 [Example 505, 5-[(3,5-dichlorophenyl)sulfonyl]-2-isopropyl-N-(2-pyridin-2-ylethyl)benzenesulfonamide] | 700 nM | – | – | – | – | fold induction at 15 µM (SFRP-1 [2]; [3]): 2.3; fold induction at 15 µM (SFRP-1 [2]; [4]): 1 |
| Cc1ccc(S(=O)(=O)c2ccccc2)cc1S(=O)(=O)NC1CCN(C(=O)c2ccc3ccccc3c2)CC1 [Example 496, 2-methyl-N-[1-(2-naphthoyl)piperidin-4-yl]-5-(phenylsulfonyl)benzenesulfonamide] | 1400 nM | – | – | – | – | fold induction at 15 µM (SFRP-1 [2]; [3]): 1.9; fold induction at 15 µM (SFRP-1 [2]; [4]): 1 |
| Cc1ccc(S(=O)(=O)c2ccc(C(C)(C)C)cc2)cc1S(=O)(=O)NCCCn1ccnc1 [Example 439, 5-[(4-tert-butylphenyl)sulfonyl]-N-[3-(1H-imidazol-1-yl)propyl]-2-methylbenzenesulfonamide] | 2000 nM | 2 | 0.9 | – | – | – |
| COc1cccc(S(=O)(=O)c2ccc(C(F)(F)F)c(S(=O)(=O)NCCO)c2)c1 [Example 785, N-(2-hydroxyethyl)-5-[(3-methoxyphenyl)sulfonyl]-2-(trifluoromethyl)benzenesulfonamide] | 1100 nM | – | – | 2.9 | – | – |
| C/C(=N\O)c1ccc(S(=O)(=O)c2ccc(C)c(S(=O)(=O)NC3CCOCC3)c2)cc1 [Example 402, 5-({4-[(1E)-N-hydroxyethanimidoyl]phenyl}sulfonyl)-2-methyl-N-(tetrahydro-2H-pyran-4-yl)benzenesulfonamide] | 2600 nM | 2.5 | 1.1 | – | – | – |
| Cc1ccc(S(=O)(=O)c2ccccc2)cc1S(=O)(=O)NC1CCN(S(=O)(=O)c2ccccc2)CC1 [Example 448, 2-methyl-5-(phenylsulfonyl)-N-[1-(phenylsulfonyl)piperidin-4-yl]benzenesulfonamide] | 120 nM and 170 nM | 2 | 1.2 | – | – | – |
| Cc1ccc(S(=O)(=O)c2ccc(N[C@H](C)C3CCCCC3)cc2)cc1S(=O)(=O)NCCCn1ccnc1 [Example 372, 5-[(4-{[(1R)-1-cyclohexylethyl]amino}phenyl)sulfonyl]-N-[3-(1H-imidazol-1-yl)propyl]-2-methylbenzenesulfonamide] | 2000 nM and 2100 nM | 2.2 | 0.9 | – | – | – |
| CN(CCNS(=O)(=O)c1cc(S(=O)(=O)c2ccccc2)ccc1C(F)(F)F)C(=O)N[C@@H]1CCNC1 [Example 1008, N-[2-(methyl{[(3R)-pyrrolidin-3-ylamino]carbonyl}amino)ethyl]-5-(phenylsulfonyl)-2-(trifluoromethyl)benzenesulfonamide] | 3000 nM | – | – | – | 936 | – |
| C[C@@H](NS(=O)(=O)c1cc(S(=O)(=O)c2ccccc2)ccc1Cl)[C@H](O)c1ccccc1 (relative stereo) [Example 676, 2-chloro-N-[(1R*,2R*)-2-hydroxy-1-methyl-2-phenylethyl]-5-(phenylsulfonyl)benzenesulfonamide] | 9000 nM | – | – | 2.6 | 8900 | – |
| COc1ccccc1S(=O)(=O)c1ccc(C(C)C)c(S(=O)(=O)NCCc2ccccn2)c1 [Example 457, 2-isopropyl-5-[(2-methoxyphenyl)sulfonyl]-N-(2-pyridin-2-ylethyl)benzenesulfonamide] | 1100 nM | 2.9 | 1 | – | – | – |
| CC(C)c1ccc(S(=O)(=O)c2cn(C)cn2)cc1S(=O)(=O)NCCc1ccccn1 [Example 513, 2-isopropyl-5-[(1-methyl-1H-imidazol-4-yl)sulfonyl]-N-(2-pyridin-2-ylethyl)benzenesulfonamide] | 6000 nM | – | – | – | – | fold induction at 15 µM (SFRP-1 [2]; [3]): 2.2; fold induction at 15 µM (SFRP-1 [2]; [4]): 1.2 |
| CN(CCCNS(=O)(=O)c1cc(S(=O)(=O)c2ccccc2)ccc1C(F)(F)F)C(=O)OC(C)(C)C [Example 927, tert-butyl methyl[3-({[5-(phenylsulfonyl)-2-(trifluoromethyl)phenyl]sulfonyl}amino)propyl]carbamate] | 2400 nM | – | – | 2.1 | 4510 | – |
| CC(C)c1ccc(S(=O)(=O)c2ccc(N(C)C)cc2)cc1S(=O)(=O)NCCc1ccccn1 [Example 507, 5-{[4-(dimethylamino)phenyl]sulfonyl}-2-isopropyl-N-(2-pyridin-2-ylethyl)benzenesulfonamide] | 500 nM | – | – | – | – | fold induction at 15 µM (SFRP-1 [2]; [3]): 2.7; fold induction at 15 µM (SFRP-1 [2]; [4]): 0.9 |
| CCC(O)CNc1ccc(S(=O)(=O)c2ccc(C(C)C)c(S(=O)(=O)NCCn3ccnc3)c2)cc1 (centres unmarked) [Example 452, 5-({4-[(2-hydroxybutyl)amino]phenyl}sulfonyl)-N-[2-(1H-imidazol-1-yl)ethyl]-2-isopropylbenzenesulfonamide] | 200 nM | 3.8 | 1 | – | – | – |
| CN(CCNS(=O)(=O)c1cc(S(=O)(=O)c2ccccc2)ccc1C(F)(F)F)C(=O)c1cccnc1 [Example 849, N-Methyl-N-[2-({[5-(phenylsulfonyl)-2-(trifluoromethyl)phenyl]sulfonyl}amino)ethyl]nicotinamide] | 700 nM | – | – | 3.9 | 2100 | – |
| C[C@@H](NS(=O)(=O)c1cc(S(=O)(=O)c2ccccc2)ccc1C(F)(F)F)[C@@H](O)c1ccccc1 [Example 686, N-[(1R,2S)-2-hydroxy-1-methyl-2-phenylethyl]-5-(phenylsulfonyl)-2-(trifluoromethyl)benzenesulfonamide] | 500 nM | – | – | 3.5 | 1750 | – |
| COC(=O)CCNS(=O)(=O)c1cc(S(=O)(=O)c2ccccc2)ccc1C [Example 204, methyl N-{[2-methyl-5-(phenylsulfonyl)phenyl]sulfonyl}-beta-alaninate] | 8000 nM | 3.4 | 1.1 | – | – | – |
| O=C([C@@H]1CSCN1)N1CCC(NS(=O)(=O)c2cc(S(=O)(=O)c3ccccc3)ccc2C(F)(F)F)CC1 [Example 1056, 5-(phenylsulfonyl)-N-{1-[(4R)-1,3-thiazolidin-4-ylcarbonyl]piperidin-4-yl}-2-(trifluoromethyl)benzenesulfonamide] | 40 nM | – | – | – | 294 | – |
| CN(CCNS(=O)(=O)c1cc(S(=O)(=O)c2ccccc2)ccc1C(F)(F)F)C(=O)N[C@@H]1CCCN(C(=O)OC(C)(C)C)C1 [Example 1009, tert-butyl (3R)-3-[({methyl[2-({[5-(phenylsulfonyl)-2-(trifluoromethyl)phenyl]sulfonyl}amino)ethyl]amino}carbonyl)amino]piperidine-1-carboxylate] | 210 nM | – | – | – | 945 | – |
| O=C(c1ccccc1)c1ccc(C(=O)N2CCC(NS(=O)(=O)c3cc(S(=O)(=O)c4ccccc4)ccc3C(F)(F)F)CC2)cc1 [Example 800, N-[1-(4-benzoylbenzoyl)piperidin-4-yl]-5-(phenylsulfonyl)-2-(trifluoromethyl)benzenesulfonamide] | 400 nM | – | – | 3.6 | 738 | – |
| O=C(O)CCCNS(=O)(=O)c1cc(S(=O)(=O)c2ccccc2)ccc1C(F)(F)F [Example 893, 4-({[5-(phenylsulfonyl)-2-(trifluoromethyl)phenyl]sulfonyl}amino)butanoic acid] | 700 nM | – | – | 1.8 | – | – |
| CN(CCNS(=O)(=O)c1cc(S(=O)(=O)c2ccccc2)ccc1C(F)(F)F)C(=O)NC1CCNCC1 [Example 881, N-(2-{methyl[(piperidin-4-ylamino)carbonyl]amino}ethyl)-5-(phenylsulfonyl)-2-(trifluoromethyl)benzenesulfonamide] | 280 nM | – | – | 3.4 | 850 | – |
| O=S(=O)(NC1Cc2ccc(O)cc2C1)c1cc(S(=O)(=O)c2ccccc2)ccc1C(F)(F)F (centres unmarked) [Example 1004, N-(5-hydroxy-2,3-dihydro-1H-inden-2-yl)-5-(phenylsulfonyl)-2-(trifluoromethyl)benzenesulfonamide] | 60 nM | – | – | – | 473 | – |
| CC(C)c1ccc(S(=O)(=O)c2ccc(N3C[C@@H](C)NC[C@@H]3C)cc2)cc1S(=O)(=O)NC1CCOCC1 (relative stereo) [Example 627, 5-({4-trans-2,5-dimethylpiperazin-1-ylphenyl}sulfonyl)-2-isopropyl-N-(tetrahydro-2H-pyran-4-yl)benzenesulfonamide] | 5000 nM | – | – | – | – | Fold Induction with SFRP-1 (SFRP-1 [2]; Conc 15 μM, single dose, luciferase reporter, fold induction over SFRP-1 control, cells with SFRP-1): 3.4 fold; Fold Induction without SFRP-1 (SFRP-1 [2]; Conc 15 μM, single dose, luciferase reporter, cells without SFRP-1 (specificity control)): 1.1 fold |
| CC(C)c1ccc(S(=O)(=O)c2cccc3c(N(C)C)cccc23)cc1S(=O)(=O)NCCc1ccccn1 [Example 474, 5-{[5-(dimethylamino)-1-naphthyl]sulfonyl}-2-isopropyl-N-(2-pyridin-2-ylethyl)benzenesulfonamide] | 800 nM | 1.4 | 1 | – | – | – |
| O=S(=O)(NCC(O)c1ccccn1)c1cc(S(=O)(=O)c2ccccc2)ccc1C(F)(F)F (centres unmarked) [Example 757, N-(2-hydroxy-2-pyridin-2-ylethyl)-5-(phenylsulfonyl)-2-(trifluoromethyl)benzenesulfonamide] | 1100 nM | – | – | 3.1 | – | – |
